The values below come from patent US11786476B2, “Oral dosage form” (Universiteit Gent, priority 2016, dated 2023).

The nature of series [1]: Powder characteristics of raw materials (particle size and geometry). Conditions: raw material powder; for D90: 90% of particles smaller than this diameter. Format: physicochemical.
For series [2] the following is noted: literature values; cited from earlier work.

Usually aqueous solubility stands for the concentration that dissolves in the medium under given conditions.

Structures are written as SMILES. Structures can show the parent of a compound that is named as a salt.

In the case of `CC(=O)Nc1ccc(O)cc1` [Acetaminophen, acetaminophen], in series [1], the D10 is recorded as 1.7 μm, the D50 amounted to 6.4 μm, the Sphericity is given as 0.84 and the D90 turned out to be 20.1 μm.

In series [1], `CN(C)C(=N)N=C(N)N` [Metformin · HCl, metformin hydrochloride] yielded a D10 of 8.4 μm, a D50 of 51.6 μm, a Sphericity of 0.87 and a D90 of 150.2 μm.

In the case of `COc1cccc(C2(O)CCCCC2CN(C)C)c1` (stereo not drawn) [tramadol], the aqueous solubility in series [2] was 30 to 100 mg/mL.
